The values below come from patent US8389564B2, “Proteasome inhibitors” (priority 2008, dated 2013).

SMILES strings stand for the structures. Like-named read-outs stand apart in the source and are kept apart here.

The test system of one assay is RPMI 8226. Put plainly: Cytotoxicity in RPMI 8226. The note with it: Homo sapiens, RPMI-8226, read-out: Cytotoxicity in RPMI 8226 Average IC50 ± SD (nM).
Assay [1] concerns the target T1, trypsin-like activity of the 20S proteasome (Oryctolagus cuniculus, UniProt G1SWK8).
T1 construct: In Vitro Purified Rabbit Muscle 20S Proteasome Activity Assays; from tissue; host or cells: rabbit muscle
T1 sequence (G1SWK8 1-271): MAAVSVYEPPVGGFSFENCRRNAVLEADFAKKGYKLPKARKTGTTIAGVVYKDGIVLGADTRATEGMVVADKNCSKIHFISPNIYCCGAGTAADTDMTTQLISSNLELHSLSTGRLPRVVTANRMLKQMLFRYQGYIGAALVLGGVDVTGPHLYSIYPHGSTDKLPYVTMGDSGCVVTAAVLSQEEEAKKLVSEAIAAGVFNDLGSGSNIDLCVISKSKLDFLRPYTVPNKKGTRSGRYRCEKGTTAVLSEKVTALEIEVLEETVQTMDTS
Put plainly: In vitro purified rabbit muscle 20S proteasome assay, trypsin-like (T-L) activity, Boc-LRR-AMC substrate. Format: biochemical. Here is the method:
(§1) Serial diluted test compounds were added in duplicate to 1 μg/ml purified rabbit 20S proteasome in assay buffer containing 20 mM HEPES, pH7.3, 0.5 mM EDTA, 0.05% Triton X-100 and 0.035% SDS and pre-incubated for 5 min at 37° C. Reactions were initiated by the addition of the Suc-LLVY-AMC peptide substrate at a final concentration of 20 μM. Fluorescence of the cleaved peptide substrate was measured at λex=390 nm and λem=460 nm using a Fluoroskan Ascent 96-well microplate reader (Thermo Electron, Waltham, Mass.). […] The caspase-like activity of the 20S proteasome was determined as described above except that Z-LLEAMC was used as the peptide substrate. For the evaluation of the trypsin-like activity, the SDS was omitted from the assay buffer and Boc-LRR-AMC was used as the peptide substrate.

For assay [2], the target named is T2, caspase-like activity of the 20S proteasome (Oryctolagus cuniculus, UniProt A0A5F9DQW2).
T2 construct: In Vitro Purified Rabbit Muscle 20S Proteasome Activity Assays; from tissue; host or cells: rabbit muscle
T2 sequence (A0A5F9DQW2 1-212): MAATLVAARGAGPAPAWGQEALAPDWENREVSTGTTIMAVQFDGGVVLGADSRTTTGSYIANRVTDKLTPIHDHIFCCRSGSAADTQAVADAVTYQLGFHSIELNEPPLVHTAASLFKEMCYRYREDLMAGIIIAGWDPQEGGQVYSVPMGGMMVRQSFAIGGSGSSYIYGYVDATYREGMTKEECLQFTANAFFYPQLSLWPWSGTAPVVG
Put plainly: In vitro purified rabbit muscle 20S proteasome assay, caspase-like (C-L) activity, Z-LLEAMC substrate. Format: biochemical. Here is the method: as §1

Assay [3] addresses T3, chymotrypsin-like activity of the 20S proteasome (Oryctolagus cuniculus, UniProt G1T4Q9).
T3 construct: In Vitro Purified Rabbit Muscle 20S Proteasome Activity Assays; from tissue; host or cells: rabbit muscle
T3 sequence (G1T4Q9 1-263): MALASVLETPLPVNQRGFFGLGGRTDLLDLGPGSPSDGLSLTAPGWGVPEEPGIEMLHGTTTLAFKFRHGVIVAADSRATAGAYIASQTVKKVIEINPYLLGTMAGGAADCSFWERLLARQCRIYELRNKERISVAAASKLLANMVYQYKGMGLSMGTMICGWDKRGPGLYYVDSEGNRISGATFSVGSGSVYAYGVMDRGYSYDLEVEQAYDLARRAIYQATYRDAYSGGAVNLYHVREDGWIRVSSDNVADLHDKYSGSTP
Put plainly: In vitro purified rabbit muscle 20S proteasome assay, chymotrypsin-like (CT-L) activity, Suc-LLVY-AMC substrate. Format: biochemical. The procedure: as §1

Setting [4] is: rabbit 20S proteasome, mean ± SD of 3 or more experiments, read-out: T-L IC50.
[5] abbreviates: rabbit 20S proteasome, mean ± SD of 3 or more experiments, read-out: C-L IC50.
Where [6] appears, read: rabbit 20S proteasome, mean ± SD of 3 or more experiments, read-out: CT-L IC50.

Protocol for RPMI 8226: B16-F10 (ATCC; CRL-6475), DU 145 (ATCC; HTB-81), HEK293 (ATCC; CRL-1573), HT-29 (ATCC; HTB-38), LoVo (ATCC; CCL-229), MDA-MB-231 (ATCC; HTB-26), MIA PaCa-2 (ATCC; CRL-1420), NCI-H292 (ATCC; CRL-1848), OVCAR-3 (ATCC, HTB-161), PANC-1 (ATCC; CRL-1469), PC-3 (ATCC; CRL-1435), RPMI 8226 (ATCC; CCL-155) and U266 (ATCC; TIB-196) are maintained in appropriate culture media. The cells are cultured in an incubator at 37° C. in 5% CO2 and 95% humidified air.
20 mM stock solutions of the test compound are prepared in 100% DMSO, aliquoted and stored at −80° C. […] The plates are returned to the incubator for 48 hours. The final concentration of DMSO is 0.25% in all samples.
Following 48 hours of drug exposure, 10 μl of 0.2 mg/ml resazurin (obtained from Sigma-Aldrich Chemical Co.) in Mg^2+, Ca^2+ free phosphate buffered saline are added to each well and the plates are returned to the incubator for 3-6 hours. Since living cells metabolize Resazurin, the fluorescence of the reduction product of Resazurin is measured using a Fusion microplate fluorometer (Packard Bioscience) with λex=535 nm and λem=590 nm filters. Resazurin dye in medium without cells is used to determine the background, which was subtracted from the data for all experimental wells.

As usually defined, the IC50 is the concentration needed to halve the response being measured. Regarding `CC(C)(C)c1ccc(S(=O)(=O)OCC[C@H]2C(=O)N[C@@]3([C@@H](O)[C@@H]4C=CCCC4)C(=O)O[C@@]23C)cc1`, the IC50 in the assay on RPMI 8226 came out at 94 ± 18 nM; in assay [1], 0.031 ± 0.001 µM; in assay [2] it was 0.18 ± 0.004 µM; in assay [3], 0.0032 ± 0.0004 µM.

Turning to `C[C@@]12OC(=O)[C@]1([C@@H](O)[C@@H]1C=CCCC1)NC(=O)[C@@H]2CCOS(=O)(=O)c1ccc(-c2ccccc2)cc1`, the IC50 was 43 ± 12 nM in the assay on RPMI 8226, 0.015 ± 0.001 µM in assay [1], 0.101 ± 0.011 µM in assay [2] and 0.0038 ± 0.0001 µM in assay [3].

Turning to `C[C@@]12OC(=O)[C@]1([C@@H](O)[C@@H]1C=CCCC1)NC(=O)[C@@H]2CCOS(=O)(=O)c1ccc(Oc2ccccc2)cc1`, the IC50 in the assay on RPMI 8226 is 78 ± 25 nM; in assay [1], 0.014 ± 0.001 µM; in assay [2], 0.085 ± 0.009 µM; in assay [3], 0.0032 ± 0.0002 µM.

In the case of `C[C@@]12OC(=O)[C@]1([C@@H](O)[C@@H]1C=CCCC1)NC(=O)[C@@H]2CCOC(=O)c1ccc(-c2ccccc2)cc1`, the IC50 with RPMI 8226 turned out to be 290 ± 108 nM; in assay [1], 0.052 ± 0.005 µM; in assay [2], 0.16 ± 0.009 µM; in assay [3], 0.009 ± 0.002 µM.

For `C[C@@]12OC(=O)[C@]1([C@@H](O)[C@@H]1C=CCCC1)NC(=O)[C@@H]2CCBr` [CH2CH2Br], the IC50 stood at 7.8 ± 1.4 nM in the assay with RPMI 8226, 0.014 ± 0.002 µM in assay [1] (setting [4]), 0.29 ± 0.06 µM in assay [2] (setting [5]) and 0.0026 ± 0.0004 µM in assay [3] (setting [6]).

On to `CCC[C@H]1C(=O)N[C@@]2([C@@H](O)[C@@H]3C=CCCC3)C(=O)O[C@@]12C` [CH2CH2CH3], for which the IC50 turned out to be 6300 nM in the assay with RPMI 8226, 1.1 ± 0.2 µM in assay [1] (setting [4]), 1.2 ± 0.2 µM in assay [2] (setting [5]) and 0.024 ± 0.005 µM in assay [3] (setting [6]).

On to `C[C@@]12OC(=O)[C@]1([C@@H](O)[C@@H]1C=CCCC1)NC(=O)[C@@H]2CCCl` [CH2CH2Cl, Salinosporamide A, reference compound], for which the IC50 with RPMI 8226 was determined as 9.8 ± 3 nM.

For `C[C@@]12OC(=O)[C@]1([C@@H](O)[C@@H]1C=CCCC1)NC(=O)[C@@H]2CCF` [CH2CH2F], the IC50 in the assay with RPMI 8226 came to 875 ± 430 nM; in assay [1] (setting [4]) it was 0.525 ± 0.015 µM; in assay [2] (setting [5]), 0.781 ± 0.047 µM; in assay [3] (setting [6]), 0.01 ± 0.0007 µM.

As to `C[C@@]12OC(=O)[C@]1([C@@H](O)[C@@H]1C=CCCC1)NC(=O)[C@@H]2CCI` [CH2CH2I], the IC50 in the assay with RPMI 8226 was determined as 6.9 ± 0.9 nM; in assay [1] (setting [4]), 0.013 ± 0.003 µM; in assay [2] (setting [5]), 0.41 ± 0.23 µM; in assay [3] (setting [6]), 0.0028 ± 0.0005 µM.

Turning to `CC(=O)OCC[C@H]1C(=O)N[C@@]2([C@@H](O)[C@@H]3C=CCCC3)C(=O)O[C@@]12C` [CH2CH2OC(O)CH3], the IC50 in the assay on RPMI 8226 came to 20000 nM; in assay [1], 0.745 ± 0.04 µM; in assay [2], 0.971 ± 0.056 µM; in assay [3], 0.0091 ± 0.0003 µM.

Turning to `CN(C)c1cccc2c(S(=O)(=O)OCC[C@H]3C(=O)N[C@@]4([C@@H](O)[C@@H]5C=CCCC5)C(=O)O[C@@]34C)cccc12` [CH2CH2ODs], the IC50 was 30 ± 6 nM in the assay on RPMI 8226, 0.012 ± 0.0023 µM in assay [1], 0.09 ± 0.011 µM in assay [2] and 0.003 ± 0.0005 µM in assay [3].

In the case of `C[C@@]12OC(=O)[C@]1([C@@H](O)[C@@H]1C=CCCC1)NC(=O)[C@@H]2CCO` [CH2CH2OH], the IC50 in the assay with RPMI 8226 was determined as 38000 nM; in assay [1] (setting [4]), 1.2 ± 0.15 µM; in assay [2] (setting [5]), 1.2 ± 0.057 µM; in assay [3] (setting [6]), 0.014 ± 0.0015 µM.

As to `C[C@@]12OC(=O)[C@]1([C@@H](O)[C@@H]1C=CCCC1)NC(=O)[C@@H]2CCOS(C)(=O)=O` [CH2CH2OMs], the IC50 in the assay on RPMI 8226 turned out to be 144 ± 46 nM; in assay [1] it was 0.065 ± 0.008 µM; in assay [2], 0.873 ± 0.032 µM; in assay [3], 0.0043 ± 0.0008 µM.

For `Cc1ccc(S(=O)(=O)OCC[C@H]2C(=O)N[C@@]3([C@@H](O)[C@@H]4C=CCCC4)C(=O)O[C@@]23C)cc1` [CH2CH2OTs], the IC50 in the assay with RPMI 8226 was found to be 27 ± 8.5 nM; in assay [1], 0.0099 ± 0.0002 µM; in assay [2] it was 0.127 ± 0.005 µM; in assay [3], 0.0025 ± 0.0004 µM.

For the compound `CC[C@H]1C(=O)N[C@@]2([C@@H](O)[C@@H]3C=CCCC3)C(=O)O[C@@]12C` [CH2CH3], the values for the IC50 (with RPMI 8226; in assay [1] (setting [4])) were 6300 nM and 0.61 ± 0.035 µM, respectively.

Take `C[C@H]1C(=O)N[C@@]2([C@@H](O)[C@@H]3C=CCCC3)C(=O)O[C@@]12C` [CH3]: the IC50 worked out at 6300 nM in the assay with RPMI 8226, 0.37 ± 0.044 µM in assay [1] (setting [4]), 0.46 ± 0.049 µM in assay [2] (setting [5]) and 0.0075 ± 0.0006 µM in assay [3] (setting [6]).
